Measured values published in patent publication EP1202975B1, “SUBSTITUTED POLYCYCLIC ARYL AND HETEROARYL PYRAZINONES USEFUL FOR SELECTIVE INHIBITION OF THE COAGULATION CASCADE” (Pharmacia Corporation, priority 1999, dated 2000).
pIC50: −log10 of the molar value. Where two headings read alike, the source gives them in different places.

Molecular target: T1, TF-VIIa (Homo sapiens, UniProt P08709)
T1 construct: 2nM recombinant human factor VIIa; purchased American Diagnostica, Greenwich CT; host or cells: soluble TF made in house in E. coli
Test: TF-VIIa Assay
Type: biochemical

[1] = cells given as a plain number (IC50); read-out: IC50 or % Inhibition TF-VIIa (30 µM)
[2] = read-out: IC50 or % Inhibition TF-VIIa (30 µM); cells given as a plain number (IC50)

T1 sequence (P08709 213-466 limits assumed): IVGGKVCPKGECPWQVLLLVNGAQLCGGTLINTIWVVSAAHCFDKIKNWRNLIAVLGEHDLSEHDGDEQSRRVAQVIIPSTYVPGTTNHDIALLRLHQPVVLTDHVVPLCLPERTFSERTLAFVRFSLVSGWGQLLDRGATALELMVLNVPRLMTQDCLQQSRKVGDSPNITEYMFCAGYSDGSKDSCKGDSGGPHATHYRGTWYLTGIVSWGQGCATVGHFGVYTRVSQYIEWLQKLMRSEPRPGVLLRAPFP
T1 sequence (P08709 61-212 limits assumed): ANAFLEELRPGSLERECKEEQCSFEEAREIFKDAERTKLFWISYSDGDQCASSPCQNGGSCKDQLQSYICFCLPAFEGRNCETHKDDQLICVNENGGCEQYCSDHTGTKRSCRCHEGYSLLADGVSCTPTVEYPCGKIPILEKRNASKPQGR
T1 sequence (P13726 33-251 partner limits assumed): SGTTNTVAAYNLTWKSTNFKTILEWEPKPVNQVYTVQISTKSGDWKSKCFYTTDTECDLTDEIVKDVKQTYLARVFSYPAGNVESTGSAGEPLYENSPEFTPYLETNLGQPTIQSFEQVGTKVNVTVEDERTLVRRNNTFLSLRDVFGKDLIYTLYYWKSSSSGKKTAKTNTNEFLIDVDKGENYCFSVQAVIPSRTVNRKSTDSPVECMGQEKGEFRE

N=C(N)c1ccc(CNC(=O)Cn2c(-c3ccccc3)c(Cl)nc(NCCc3cccc(Cl)c3)c2=O)cc1 [1471-14]
pIC50 [1]: 6.74

N=C(N)c1ccc(CNC(=O)Cn2c(-c3ccc(Cl)cc3)c(Cl)nc(NCc3ccccc3)c2=O)cc1 [1471-17]
pIC50 [2]: 4.96

N=C(N)c1ccc(CNC(=O)Cn2c(-c3ccc(Cl)cc3)c(Cl)nc(NCCc3ccncc3)c2=O)cc1 [1471-21]
pIC50 [2]: 5.09

N=C(N)c1ccc(CNC(=O)Cn2c(-c3ccc(Cl)cc3)c(Cl)nc(NCCc3cccnc3)c2=O)cc1 [1471-24]
pIC50 [2]: 5.00

N=C(N)c1ccc(CNC(=O)Cn2c(-c3cccc(N)c3)c(Cl)nc(NCCN3CCCC3)c2=O)c(F)c1 [1543-37]
pIC50 (read-out: IC50 or % Inhibition TF-VIIa (30 µM); cells without % sign: IC50): 5.91

Nc1cccc(-c2c(Cl)nc(NC3CCC3)c(=O)n2CC(=O)NCc2ccc(C3=NCCN3)cc2)c1 [Example 27]
pIC50 [1]: 4.90

NCc1ccc(CNC(=O)Cn2c(-c3cccc(N)c3)c(Cl)nc(NC3CCC3)c2=O)cc1 [Example 28]
pIC50 [1]: 5.52

O=C(Cn1c(-c2ccc(Cl)cc2)c(Cl)nc(NCc2ccccc2)c1=O)NCCc1ccncc1 [Example E-0017]
% Inhibition TF-VIIa (100 µM): 0%

O=C(Cn1c(-c2ccc(Cl)cc2)c(Cl)nc(NCCc2ccccc2)c1=O)NCCc1ccncc1 [Example E-0018]
% Inhibition TF-VIIa (100 µM): 1%

O=C(Cn1c(-c2ccc(Cl)cc2)c(Cl)nc(NCCc2cccc(Cl)c2)c1=O)NCCc1ccncc1 [Example E-0019]
% Inhibition TF-VIIa (100 µM): 0%

O=C(Cn1c(-c2ccc(Cl)cc2)c(Cl)nc(NCCc2ccc(Cl)cc2)c1=O)NCCc1ccncc1 [Example E-0020]
% Inhibition TF-VIIa (100 µM): 0%

O=C(Cn1c(-c2ccc(Cl)cc2)c(Cl)nc(NCCc2cccnc2)c1=O)NCCc1ccncc1 [Example E-0021]
% Inhibition TF-VIIa (100 µM): 0%

O=C(Cn1c(-c2ccc(Cl)cc2)c(Cl)nc(NCCc2ccncc2)c1=O)NCCc1ccncc1 [Example E-0022]
% Inhibition TF-VIIa (100 µM): 0%

O=C(Cn1c(-c2ccc(Cl)cc2)c(Cl)nc(NCCN2CCOCC2)c1=O)NCCc1ccncc1 [Example E-0023]
% Inhibition TF-VIIa (100 µM): 0%

O=C(Cn1c(-c2ccc(Cl)cc2)c(Cl)nc(NCc2ccncc2)c1=O)NCCc1ccncc1 [Example E-0024]
% Inhibition TF-VIIa (100 µM): 0%

O=C(Cn1c(-c2ccc(Cl)cc2)c(Cl)nc(NCc2ccccc2)c1=O)NCCc1ccncc1 [Example E-0025]
% Inhibition TF-VIIa (100 µM): 0%

O=C(Cn1c(-c2ccc(Cl)cc2)c(Cl)nc(NCCc2ccccc2)c1=O)NCCc1ccncc1 [Example E-0026]
% Inhibition TF-VIIa (100 µM): 0%

O=C(Cn1c(-c2ccc(Cl)cc2)c(Cl)nc(NCCc2ccc(Cl)cc2)c1=O)NCCc1ccncc1 [Example E-0028]
% Inhibition TF-VIIa (100 µM): 0%

O=C(Cn1c(-c2ccc(Cl)cc2)c(Cl)nc(NCCc2cccnc2)c1=O)NCCc1ccncc1 [Example E-0029]
% Inhibition TF-VIIa (100 µM): 0%

O=C(Cn1c(-c2ccc(Cl)cc2)c(Cl)nc(NCCc2ccncc2)c1=O)NCCc1ccncc1 [Example E-0030]
% Inhibition TF-VIIa (100 µM): 0%

O=C(Cn1c(-c2ccc(Cl)cc2)c(Cl)nc(NCc2ccncc2)c1=O)NCCc1ccncc1 [Example E-0032]
% Inhibition TF-VIIa (100 µM): 0%

COc1ccc(-c2c(Cl)nc(NCCc3ccccc3)c(=O)n2CC(=O)NCCc2ccncc2)cc1 [Example E-0034]
% Inhibition TF-VIIa (100 µM): 0%

COc1ccc(-c2c(Cl)nc(NCCc3cccc(Cl)c3)c(=O)n2CC(=O)NCCc2ccncc2)cc1 [Example E-0035]
% Inhibition TF-VIIa (100 µM): 4%

COc1ccc(-c2c(Cl)nc(NCCc3ccc(Cl)cc3)c(=O)n2CC(=O)NCCc2ccncc2)cc1 [Example E-0036]
% Inhibition TF-VIIa (100 µM): 0%

O=C(Cn1c(-c2ccc(-c3ccccc3)cc2)c(Cl)nc(NCc2ccccc2)c1=O)NCCc1ccncc1 [Example E-0049]
% Inhibition TF-VIIa (100 µM): 2%

O=C(Cn1c(-c2ccc(-c3ccccc3)cc2)c(Cl)nc(NCCc2ccccc2)c1=O)NCCc1ccncc1 [Example E-0050]
% Inhibition TF-VIIa (100 µM): 0%

O=C(Cn1c(-c2ccc(-c3ccccc3)cc2)c(Cl)nc(NCCc2ccc(Cl)cc2)c1=O)NCCc1ccncc1 [Example E-0052]
% Inhibition TF-VIIa (100 µM): 0%

O=C(Cn1c(-c2cccc(Cl)c2)c(Cl)nc(NCc2ccccc2)c1=O)NCCc1ccncc1 [Example E-0073]
% Inhibition TF-VIIa (100 µM): 0%

O=C(Cn1c(-c2cccc(Cl)c2)c(Cl)nc(NCc2ccccc2)c1=O)NCCc1cccnc1 [Example E-0074]
% Inhibition TF-VIIa (100 µM): 0%

O=C(Cn1c(-c2cccc(Cl)c2)c(Cl)nc(NCCc2ccccc2)c1=O)NCCc1ccncc1 [Example E-0076]
% Inhibition TF-VIIa (100 µM): 0%

O=C(Cn1c(-c2cccc(Cl)c2)c(Cl)nc(NCCc2ccccc2)c1=O)NCCc1cccnc1 [Example E-0077]
% Inhibition TF-VIIa (100 µM): 0%

O=C(Cn1c(-c2cccc(Cl)c2)c(Cl)nc(NCCc2cccc(Cl)c2)c1=O)NCCc1ccncc1 [Example E-0079]
% Inhibition TF-VIIa (100 µM): 0%

O=C(Cn1c(-c2cccc(Cl)c2)c(Cl)nc(NCCc2cccc(Cl)c2)c1=O)NCCc1cccnc1 [Example E-0080]
% Inhibition TF-VIIa (100 µM): 1%

O=C(Cn1c(-c2cccc(Cl)c2)c(Cl)nc(NCCc2ccc(Cl)cc2)c1=O)NCCc1ccncc1 [Example E-0082]
% Inhibition TF-VIIa (100 µM): 4%

O=C(Cn1c(-c2cccc(Cl)c2)c(Cl)nc(NCCc2ccc(Cl)cc2)c1=O)NCCc1cccnc1 [Example E-0083]
% Inhibition TF-VIIa (100 µM): 2%

O=C(Cn1c(-c2cccc(Cl)c2)c(Cl)nc(NCc2ccccc2)c1=O)NCCc1ccncc1 [Example E-0085]
% Inhibition TF-VIIa (100 µM): 0%

O=C(Cn1c(-c2cccc(Cl)c2)c(Cl)nc(NCc2ccccc2)c1=O)NCCc1cccnc1 [Example E-0086]
% Inhibition TF-VIIa (100 µM): 0%

O=C(Cn1c(-c2cccc(Cl)c2)c(Cl)nc(NCCc2ccccc2)c1=O)NCCc1ccncc1 [Example E-0088]
% Inhibition TF-VIIa (100 µM): 0%

O=C(Cn1c(-c2cccc(Cl)c2)c(Cl)nc(NCCc2ccccc2)c1=O)NCCc1cccnc1 [Example E-0089]
% Inhibition TF-VIIa (100 µM): 3%

O=C(Cn1c(-c2cccc(Cl)c2)c(Cl)nc(NCCc2cccc(Cl)c2)c1=O)NCCc1ccncc1 [Example E-0091]
% Inhibition TF-VIIa (100 µM): 1%

O=C(Cn1c(-c2cccc(Cl)c2)c(Cl)nc(NCCc2cccc(Cl)c2)c1=O)NCCc1cccnc1 [Example E-0092]
% Inhibition TF-VIIa (100 µM): 1%

O=C(Cn1c(-c2cccc(Cl)c2)c(Cl)nc(NCCc2ccc(Cl)cc2)c1=O)NCCc1ccncc1 [Example E-0094]
% Inhibition TF-VIIa (100 µM): 2%

O=C(Cn1c(-c2cccc(Cl)c2)c(Cl)nc(NCCc2ccc(Cl)cc2)c1=O)NCCc1cccnc1 [Example E-0095]
% Inhibition TF-VIIa (100 µM): 2%

COc1ccc(-c2c(Cl)nc(NCCc3cccc(Cl)c3)c(=O)n2CC(=O)NCCc2ccncc2)cc1 [Example E-0103]
% Inhibition TF-VIIa (100 µM): 2%

COc1ccc(-c2c(Cl)nc(NCCc3ccc(Cl)cc3)c(=O)n2CC(=O)NCCc2ccncc2)cc1 [Example E-0106]
% Inhibition TF-VIIa (100 µM): 5%

O=C(Cn1c(-c2ccc(-c3ccccc3)cc2)c(Cl)nc(NCc2ccccc2)c1=O)NCCc1ccncc1 [Example E-0109]
% Inhibition TF-VIIa (100 µM): 2%

O=C(Cn1c(-c2ccc(-c3ccccc3)cc2)c(Cl)nc(NCCc2ccccc2)c1=O)NCCc1ccncc1 [Example E-0112]
% Inhibition TF-VIIa (100 µM): 11%

O=C(Cn1c(-c2ccc(-c3ccccc3)cc2)c(Cl)nc(NCCc2ccc(Cl)cc2)c1=O)NCCc1ccncc1 [Example E-0118]
% Inhibition TF-VIIa (100 µM): 12%
